# Data as given in article PMC5592152 (Bioorganic & medicinal chemistry letters, 2017).
# Columns and labels:
# Assay in all cases: electrophysiological experiments, voltage clamp of oocytes
# Format in all cases: cell-based
# α7 nAChR = α7 nAChR (Homo sapiens, UniProt P36544)
# α4β2 nAChR = α4β2 nAChR (Homo sapiens, UniProt P17787+P43681)
# α3β4 nAChR = α3β4 nAChR (Homo sapiens, UniProt P30926+P32297)
# Sequence of α3β4 nAChR (P32297 32-505): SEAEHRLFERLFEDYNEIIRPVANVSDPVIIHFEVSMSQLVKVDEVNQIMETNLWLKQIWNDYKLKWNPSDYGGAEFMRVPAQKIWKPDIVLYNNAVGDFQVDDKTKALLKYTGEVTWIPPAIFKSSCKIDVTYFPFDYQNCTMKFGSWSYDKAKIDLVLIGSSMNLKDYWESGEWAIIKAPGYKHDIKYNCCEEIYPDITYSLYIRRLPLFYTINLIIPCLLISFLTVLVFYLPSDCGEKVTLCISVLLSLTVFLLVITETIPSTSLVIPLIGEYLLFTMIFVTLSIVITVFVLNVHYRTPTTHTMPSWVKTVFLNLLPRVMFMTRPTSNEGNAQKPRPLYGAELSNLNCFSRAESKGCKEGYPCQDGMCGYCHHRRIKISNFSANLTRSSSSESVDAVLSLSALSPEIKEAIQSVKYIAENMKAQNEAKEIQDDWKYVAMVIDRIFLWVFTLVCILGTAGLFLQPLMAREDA
# Sequence of α3β4 nAChR (P30926 22-498): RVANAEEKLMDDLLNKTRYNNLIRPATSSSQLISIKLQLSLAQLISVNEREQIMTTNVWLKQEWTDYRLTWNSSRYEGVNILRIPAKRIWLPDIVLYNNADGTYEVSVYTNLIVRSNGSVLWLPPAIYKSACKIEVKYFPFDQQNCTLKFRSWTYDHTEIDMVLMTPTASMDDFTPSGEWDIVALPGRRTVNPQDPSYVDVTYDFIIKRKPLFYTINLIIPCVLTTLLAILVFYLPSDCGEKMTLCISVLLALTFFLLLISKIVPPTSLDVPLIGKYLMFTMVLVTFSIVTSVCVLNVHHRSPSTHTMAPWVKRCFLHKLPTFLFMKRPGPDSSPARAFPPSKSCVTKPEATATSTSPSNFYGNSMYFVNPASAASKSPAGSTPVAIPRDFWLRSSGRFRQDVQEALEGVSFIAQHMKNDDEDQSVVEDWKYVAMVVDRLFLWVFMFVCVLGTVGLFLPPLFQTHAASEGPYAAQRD
# Sequence of α7 nAChR (P36544 23-502): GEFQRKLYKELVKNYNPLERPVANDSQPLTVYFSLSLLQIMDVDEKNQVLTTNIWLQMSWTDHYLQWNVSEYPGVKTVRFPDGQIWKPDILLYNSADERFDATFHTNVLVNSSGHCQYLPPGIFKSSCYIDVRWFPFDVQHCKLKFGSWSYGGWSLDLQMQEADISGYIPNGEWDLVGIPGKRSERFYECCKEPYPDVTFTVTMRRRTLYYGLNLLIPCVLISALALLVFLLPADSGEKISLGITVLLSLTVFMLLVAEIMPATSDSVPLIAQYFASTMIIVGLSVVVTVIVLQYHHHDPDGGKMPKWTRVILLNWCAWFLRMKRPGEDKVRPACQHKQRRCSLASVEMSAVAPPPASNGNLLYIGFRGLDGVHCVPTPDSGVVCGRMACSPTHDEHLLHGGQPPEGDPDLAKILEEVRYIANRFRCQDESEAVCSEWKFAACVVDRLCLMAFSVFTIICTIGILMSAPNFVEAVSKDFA
# Sequence of α4β2 nAChR (P43681 29-627 limits assumed): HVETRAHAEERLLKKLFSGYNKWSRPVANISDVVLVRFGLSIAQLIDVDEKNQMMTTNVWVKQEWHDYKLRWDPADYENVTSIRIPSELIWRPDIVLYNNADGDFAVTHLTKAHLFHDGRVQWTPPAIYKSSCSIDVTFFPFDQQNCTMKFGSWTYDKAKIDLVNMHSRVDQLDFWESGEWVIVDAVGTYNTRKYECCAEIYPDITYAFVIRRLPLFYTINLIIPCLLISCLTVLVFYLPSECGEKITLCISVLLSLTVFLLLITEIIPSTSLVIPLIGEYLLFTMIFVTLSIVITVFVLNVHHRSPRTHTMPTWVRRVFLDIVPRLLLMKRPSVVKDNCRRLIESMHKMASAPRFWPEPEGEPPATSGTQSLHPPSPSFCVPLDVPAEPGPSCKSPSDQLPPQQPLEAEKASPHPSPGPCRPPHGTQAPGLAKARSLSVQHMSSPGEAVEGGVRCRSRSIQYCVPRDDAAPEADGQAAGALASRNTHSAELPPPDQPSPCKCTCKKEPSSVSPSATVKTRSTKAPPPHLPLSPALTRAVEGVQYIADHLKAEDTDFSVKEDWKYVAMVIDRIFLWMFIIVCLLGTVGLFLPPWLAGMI
# Sequence of α4β2 nAChR (P17787 26-502): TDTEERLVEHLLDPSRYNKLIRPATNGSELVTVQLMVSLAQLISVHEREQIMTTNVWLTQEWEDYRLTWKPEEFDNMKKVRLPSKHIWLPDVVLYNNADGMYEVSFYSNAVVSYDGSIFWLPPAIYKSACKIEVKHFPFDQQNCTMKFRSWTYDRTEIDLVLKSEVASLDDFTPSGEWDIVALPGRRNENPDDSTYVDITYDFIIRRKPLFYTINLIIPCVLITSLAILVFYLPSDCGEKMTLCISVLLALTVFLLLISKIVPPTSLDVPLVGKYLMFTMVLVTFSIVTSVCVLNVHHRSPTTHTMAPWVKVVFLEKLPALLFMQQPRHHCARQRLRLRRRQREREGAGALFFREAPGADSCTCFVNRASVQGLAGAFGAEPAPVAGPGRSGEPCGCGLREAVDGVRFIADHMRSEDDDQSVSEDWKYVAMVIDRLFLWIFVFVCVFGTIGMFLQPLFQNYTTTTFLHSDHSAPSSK
smiles,measurement,setting,value
CN1CCC=C(c2cnc(F)c(-c3ccccc3)c2)C1 [Compound 3a],agonist activity,"α7 nAChR; 60 μM for α7, normalized to control ACh response",no significant agonist activity
same,antagonist activity,"α7 nAChR; compound at 100 μM, with ACh 60 μM",no significant antagonist activity
same,agonist activity,"α4β2 nAChR; 30 μM for α4β2, normalized to control ACh response",no significant agonist activity
same,antagonist activity,"α4β2 nAChR; compound at 100 μM, with ACh 30 μM",no significant antagonist activity
same,agonist activity,"α3β4 nAChR; 100 μM for α3β4, normalized to control ACh response",no significant agonist activity
same,antagonist activity,"α3β4 nAChR; compound at 100 μM, with ACh 100 μM",significantly antagonized
